Source: ChEMBL document CHEMBL5634122, “Integrated fragment-based drug design and virtual screening techniques for exploring the antidiabetic potential of thiazolidine-2,4-diones: Design, synthesis and in vivo studies” (Eur J Med Chem, 2023)

Legend:
[1] = Toxicity in Zebra fish assessed as change in body weight at 10 mg/kg measured after 10 days; format: organism-based, Danio rerio; conditions: zebrafish, in vivo, 240 h, time 10 day
[2] = Toxicity in Swiss albino mouse assessed as reduction in body weight at 10 mg/kg, po measured for 15 days; format: organism-based; conditions: in vivo, 360 h, time 15 day
HEK293 = assay: Cytotoxicity against HEK293 cells assessed as reduction in cell viability at 100 to 8000 nM incubated for 24 hrs by MTT assay; format: toxicity, cell-based; conditions: human, hek293, 24 h, 8 µM, dose 100-8000 nM
[3] = molecular target: T1, Peroxisome proliferator-activated receptor gamma (Homo sapiens, UniProt P37231); assay: Agonist activity at PPARgamma in HEK293 cells assessed as transactivation incubated for 5 to 10 mins by microplate reader analysis; format: cell-based
T1 sequence (P37231 whole entry): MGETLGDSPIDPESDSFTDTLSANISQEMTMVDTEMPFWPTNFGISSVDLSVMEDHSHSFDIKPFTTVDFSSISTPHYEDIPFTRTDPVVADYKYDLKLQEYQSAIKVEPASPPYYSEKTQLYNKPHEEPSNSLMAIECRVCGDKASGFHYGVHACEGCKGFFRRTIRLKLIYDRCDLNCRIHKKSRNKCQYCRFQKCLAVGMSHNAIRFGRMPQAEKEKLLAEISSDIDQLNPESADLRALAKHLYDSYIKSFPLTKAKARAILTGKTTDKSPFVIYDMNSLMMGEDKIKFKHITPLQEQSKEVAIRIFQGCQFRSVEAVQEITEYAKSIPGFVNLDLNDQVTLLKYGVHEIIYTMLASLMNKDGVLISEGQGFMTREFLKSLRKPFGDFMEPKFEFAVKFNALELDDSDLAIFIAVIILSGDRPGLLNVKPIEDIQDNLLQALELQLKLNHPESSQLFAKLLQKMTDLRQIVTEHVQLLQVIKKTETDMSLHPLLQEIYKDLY

Mus musculus [4] = assay: Antidiabetic activity in STZ-induced Swiss albino diabetic mouse model assessed as blood glucose levels at 36 mg/kg, po measured after 30 mins by oral glucose tolerance test (reference value: 213.5 mg/dl); format: functional; conditions: 0.5 h
Mus musculus [5] = assay: Antidiabetic activity in STZ-induced Swiss albino diabetic mouse model assessed as blood glucose levels at 36 mg/kg, po measured after 120 mins by oral glucose tolerance test; format: functional; conditions: 2 h
Mus musculus [6] = assay: Antidiabetic activity in STZ-induced Swiss albino diabetic mouse model assessed as increase in total cholesterol level in serum at 36 mg/kg, po (reference value: 51.16 +/- 6.89 mg/dl); format: functional
Mus musculus [7] = assay: Antidiabetic activity in STZ-induced Swiss albino diabetic mouse model assessed as blood glucose levels at 36 mg/kg, po measured immediately by oral glucose tolerance test (reference value: 234.5 mg/dl); format: functional
Mus musculus [8] = assay: Antidiabetic activity in STZ-induced Swiss albino diabetic mouse model assessed as blood glucose levels at 36 mg/kg, po measured on day 1,3,5,7 and 15 by glucometer; format: functional; conditions: time 15 day
Mus musculus [9] = assay: Antidiabetic activity in STZ-induced Swiss albino diabetic mouse model assessed as reduction in LDL level in serum at 36 mg/kg, po (reference value: 61.83 +/- 4.08 mg/dl); format: functional
Mus musculus [10] = assay: Antidiabetic activity in STZ-induced Swiss albino diabetic mouse model assessed as reduction in triglyceride level in serum at 36 mg/kg, po (reference value: 131.83 +/- 12.12 mg/dl); format: functional
Mus musculus [11] = assay: Antidiabetic activity in STZ-induced Swiss albino diabetic mouse model assessed as increase in HDL level in serum at 36 mg/kg, po (reference value: 26 +/- 4.83 mg/dl); format: functional
Mus musculus [12] = assay: Antidiabetic activity in STZ-induced Swiss albino diabetic mouse model assessed as blood glucose levels at 36 mg/kg, po measured after 60 mins by oral glucose tolerance test (reference value: 199.16 mg/dl); format: functional; conditions: 1 h
[13] = Toxicity in Swiss albino mouse assessed as reduction in body weight at 36 mg/kg, po measured for 15 days; format: organism-based; conditions: in vivo, 360 h, time 15 day
Danio rerio = assay: Antidiabetic activity in STZ-induced Zebra fish diabetic model assessed as blood glucose level at 36 mg/kg measured after 10 days; format: functional; conditions: time 10 day

## Cc1ccc(CN2C(=O)S/C(=C\c3ccc(Nc4cccc(Cl)c4)s3)C2=O)cc1
[1]
  Activity: Non-Toxic
[2]
  Activity: Non-Toxic
HEK293
  Activity: Non-Toxic

## Cc1ccc(CN2C(=O)S/C(=C\c3ccc(Nc4ccc([N+](=O)[O-])cc4)s3)C2=O)cc1
[3]
  EC50: 1.55 µM
HEK293
  Activity: Non-Toxic

## Cc1ccc(CN2C(=O)S/C(=C\c3ccc(Oc4ccc5ccccc5c4)s3)C2=O)cc1
[3]
  EC50: 3.57 µM
HEK293
  Activity: Non-Toxic

## COc1cccc(CN2C(=O)S/C(=C\c3ccc(Nc4ccc(Cl)cc4)cc3)C2=O)c1
HEK293
  Activity: Non-Toxic

## Cc1ccc(CN2C(=O)S/C(=C\c3ccc(Oc4ccc([N+](=O)[O-])cc4)s3)C2=O)cc1
[3]
  EC50: 1.54 µM
HEK293
  Activity: Non-Toxic

## Cc1ccc(CN2C(=O)S/C(=C\c3ccc(Nc4ccccc4Cl)s3)C2=O)cc1
[1]
  Activity: Non-Toxic
HEK293
  Activity: Non-Toxic

## Cc1ccc(CN2C(=O)S/C(=C\c3ccc(Nc4ccc(Cl)cc4)cc3)C2=O)cc1
[3]
  EC50: 1.36 µM
HEK293
  Activity: Non-Toxic

## Cc1ccc(CN2C(=O)S/C(=C\c3ccc(Nc4ccc(Cl)cc4)s3)C2=O)cc1
[3]
  EC50: 1.47 µM
HEK293
  Activity: Non-Toxic

## Cc1ccc(CN2C(=O)S/C(=C\c3ccc(OCc4ccccc4)s3)C2=O)cc1
[3]
  EC50: 2.01 µM
HEK293
  Activity: Non-Toxic

## COc1cccc(CN2C(=O)S/C(=C\c3ccc(Nc4cccc(Cl)c4)cc3)C2=O)c1
HEK293
  Activity: Non-Toxic

## Cc1ccc(CN2C(=O)S/C(=C\c3ccc(Nc4ccccc4[N+](=O)[O-])s3)C2=O)cc1
HEK293
  Activity: Non-Toxic

## Cc1ccc(CN2C(=O)S/C(=C\c3ccc(Oc4ccccc4)s3)C2=O)cc1
[3]
  EC50: 2.74 µM
HEK293
  Activity: Non-Toxic

## CCc1ccc(CCOc2ccc(CC3SC(=O)NC3=O)cc2)nc1 (centres undefined) [PIOGLITAZONE]
Mus musculus [4]
  Activity: 214.16 mg/dL
Mus musculus [5]
  Activity: 112 mg/dL
Mus musculus [6]
  Activity: 51.16 mg/dL
Mus musculus [7]
  Activity: 234.8 mg/dL
Mus musculus [8]
  Activity: 132.2 mg/dL
Mus musculus [9]
  Activity: 30.16 mg/dL
Mus musculus [10]
  Activity: 52 mg/dL
Mus musculus [11]
  Activity: 26 mg/dL
Mus musculus [12]
  Activity: 150.83 mg/dL
[13]
  Activity: Non-Toxic
Danio rerio
  Activity: 112 mg/dL
HEK293
  Activity: Non-Toxic
